The target of assay [1] is T1, Human PARP-1 enzyme (Homo sapiens, UniProt P09874).
T1 construct: purchased Trevigen
Briefly: In vitro Scintillation Proximity Assay (SPA) for PARP-1 inhibitory activity. The class given is biochemical. The note with it: read-out: in vitro SPA assay PARP-1 pIC50 (converted). The method in brief: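 SPA assay: nicked-DNA-activated PARP-1 (0.1–0.2 μg/ml) ADP-ribosylates biotinylated histones (2 μg/ml) using [3H]-NAD+, 20 min at RT in Tris pH 8/DTT/MgCl2, stopped with 2 mM NAD+. Blank-subtracted cpm expressed as % control; IC50 by linear interpolation, reported as pIC50 (10−5 to 3×10−9 M tested).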

Assay [2] has as its system HCT116 cells. As to the kind of experiment: Antiproliferative activity, Alamar Blue assay, HCT116 cells. The class given is cell-based, human. Details: key to HCT116 antiproliferative activity pIC50: pIC50 = -log IC50 (IC50: conc. reducing growth to 50% of control). The note with it: for IC50: Homo sapiens, HCT-116, HCT116 cells, read-out: HCT116 antiproliferative activity pIC50 (converted). The method in brief:
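Readout is resazurin fluorescence (ex 540, em 590 nm) after a 4 h dye incubation at 37 °C, following 4-day compound treatment of HCT116 cells plated 24 h earlier. Results expressed as % viable cells versus untreated; pIC50 derived from probit-fitted IC50.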
Background: Resazurin is reduced to fluorescent resorufin, in cell work by metabolically active cells.

Assay [3] concerns PC-3 cells. Briefly: Antiproliferative activity, Alamar Blue assay, PC-3 cells. The class given is cell-based, human. The note with it: for IC50: Homo sapiens, PC-3, PC3 cells, read-out: PC3 antiproliferative activity pIC50 (converted); for PC3 antiproliferative activity pIC50: PC3 cells. The method in brief: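 Resazurin-based fluorescence (540 nm ex/590 nm em) measured after 4-day compound treatment plus 24 hrs dye incubation at 37° C. Cells plated at 4.5×10^3 cells/ml, adhered 24 hr first. pIC50 from probit-derived IC50 on % viable cells versus untreated, triplicate wells.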

T1 sequence (P09874 whole entry): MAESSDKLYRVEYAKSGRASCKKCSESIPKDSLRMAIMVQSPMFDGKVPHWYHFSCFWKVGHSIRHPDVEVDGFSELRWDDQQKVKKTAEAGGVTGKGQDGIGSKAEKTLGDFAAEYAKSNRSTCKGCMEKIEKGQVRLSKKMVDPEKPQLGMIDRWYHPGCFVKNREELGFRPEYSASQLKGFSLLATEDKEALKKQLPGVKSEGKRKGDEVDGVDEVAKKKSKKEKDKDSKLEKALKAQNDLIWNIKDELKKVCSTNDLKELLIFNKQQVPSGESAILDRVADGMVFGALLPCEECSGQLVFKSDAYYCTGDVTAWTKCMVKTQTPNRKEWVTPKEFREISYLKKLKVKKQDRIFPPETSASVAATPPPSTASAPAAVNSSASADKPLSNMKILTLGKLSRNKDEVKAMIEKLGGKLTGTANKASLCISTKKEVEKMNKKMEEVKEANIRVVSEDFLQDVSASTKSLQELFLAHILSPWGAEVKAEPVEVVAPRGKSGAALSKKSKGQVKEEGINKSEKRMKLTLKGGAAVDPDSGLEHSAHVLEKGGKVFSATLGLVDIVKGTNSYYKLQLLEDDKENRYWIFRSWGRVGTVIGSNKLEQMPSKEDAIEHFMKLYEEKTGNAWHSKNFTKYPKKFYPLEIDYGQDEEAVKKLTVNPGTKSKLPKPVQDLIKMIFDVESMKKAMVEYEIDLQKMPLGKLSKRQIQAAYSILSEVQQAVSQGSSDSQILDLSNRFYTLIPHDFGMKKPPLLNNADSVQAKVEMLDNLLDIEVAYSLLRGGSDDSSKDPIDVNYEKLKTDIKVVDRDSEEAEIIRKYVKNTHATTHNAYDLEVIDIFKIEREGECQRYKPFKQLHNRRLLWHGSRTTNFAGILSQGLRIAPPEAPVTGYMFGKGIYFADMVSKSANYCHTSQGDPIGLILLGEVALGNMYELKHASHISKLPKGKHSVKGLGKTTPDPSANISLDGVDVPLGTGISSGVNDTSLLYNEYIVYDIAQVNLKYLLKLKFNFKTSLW

As for `CCc1cc2ccc(C(C)(C#N)CCOc3ccc([N+](=O)[O-])cc3)cc2[nH]c1=O` (stereo not drawn) [Compound 54], the IC50 in assay [1] was 158 nM; in assay [2], 501 nM; in assay [3], 794 nM.
As for `CCc1cc2ccc(C(C)(C#N)Cc3cccc(CN4CCN(C)CC4)c3)cc2[nH]c1=O` (stereo not drawn) [Compound 57], the figures for the IC50 in assay [1], in assay [2] and in assay [3] were 3980 nM, over 10000 nM and over 10000 nM, respectively.
As for `CCc1cc2ccc(C(C)(C#N)Cc3cccc(CN4CCOCC4)c3)cc2[nH]c1=O` (stereo not drawn) [Compound 58], the IC50 is 501 nM in assay [1], 501 nM in assay [2] and 2000 nM in assay [3].
For the compound `CCc1cc2ccc(C(C)(C#N)Cc3cccc(CNC)c3)cc2[nH]c1=O` (stereo not drawn) [Compound 59], the IC50 in assay [1] is 631 nM; in assay [2], 3160 nM; in assay [3], 10000 nM.
Consider `CCc1cc2ccc(C(C)(C#N)Cc3cccc(CNCCOC)c3)cc2[nH]c1=O` (stereo not drawn) [Compound 60], for which the IC50 was 794 nM in assay [1], 6310 nM in assay [2] and 7940 nM in assay [3].
Take `CCc1cc2ccc(C(C)(C#N)Cc3cccc(CNCCN4CCOCC4)c3)cc2[nH]c1=O` (stereo not drawn) [Compound 61]: the IC50 in assay [1] is 1000 nM; in assay [2] it was over 10000 nM; in assay [3], over 10000 nM.
Consider `CCc1cc2ccc(C(C)(C#N)Cc3cccc(C(=O)NCCOC)c3)cc2[nH]c1=O` (stereo not drawn) [Compound 62], for which the IC50 was 501 nM in assay [1], 7940 nM in assay [2] and 7940 nM in assay [3].
Consider `CCc1cc2ccc(C(C)(C#N)Cc3cccc(C(=O)N(C)C)c3)cc2[nH]c1=O` (stereo not drawn) [Compound 63], for which the IC50 was 1000 nM in assay [1], 1580 nM in assay [2] and 3160 nM in assay [3].
The matching figures for `CCc1cc2ccc(C(C)(C#N)Cc3cccc(N4CCNCC4)c3)cc2[nH]c1=O` (stereo not drawn) [Compound 64]: 794 nM, over 10000 nM and over 10000 nM.
For `CCc1cc2ccc(C(C)(C#N)Cc3cccc(N4CCN(C)CC4)c3)cc2[nH]c1=O` (stereo not drawn) [Compound 66], the IC50 in assay [1] was 1260 nM; in assay [2], 5010 nM; in assay [3] it was 5010 nM.
As for `CCc1cc2ccc(C(C)(C#N)Cc3cccc(OCC4CC4)c3)cc2[nH]c1=O` (stereo not drawn) [Compound 67], the IC50 was 1000 nM in assay [1], 1580 nM in assay [2] and 1260 nM in assay [3].
The matching figures for `CCc1cc2ccc(C(C)(C#N)Cc3cccc(OCCCN4CCOCC4)c3)cc2[nH]c1=O` (stereo not drawn) [Compound 68]: 1000 nM, 6310 nM and 7940 nM.
In the case of `CCc1cc2ccc(C(C)(C#N)Cc3cccc(OCCCN4CCN(C)CC4)c3)cc2[nH]c1=O` (stereo not drawn) [Compound 69], the IC50 in assay [1] was 794 nM; in assay [2] it was 7940 nM; in assay [3], 7940 nM.
With `Cc1cc2ccc(C(C)(C#N)Cc3noc(-c4cccc(C(F)(F)F)c4)n3)cc2[nH]c1=O` (stereo not drawn) [Compound 70], the IC50 in assay [1] was 3980 nM; in assay [2], 631 nM; in assay [3], 2510 nM.
On the same counts, the results for `Cc1cc2ccc(C(C)(C#N)Cc3cc4ccccc4s3)cc2[nH]c1=O` (stereo not drawn) [Compound 71] are 3160 nM, 5010 nM and 2000 nM.
`Cc1cc2ccc(C(C)(C#N)Cc3ccc(Cl)s3)cc2[nH]c1=O` (stereo not drawn) [Compound 72]: the IC50 is 1260 nM in assay [1], 794 nM in assay [2] and 2000 nM in assay [3].
On the same counts, the results for `Cc1cc2ccc(C(C)(C#N)Cc3ccc(C(F)(F)F)o3)cc2[nH]c1=O` (stereo not drawn) [Compound 73] are 2000 nM, 794 nM and 2000 nM.
On the same counts, the results for `Cc1cc2ccc(C(C)(C#N)Cc3cccc4cccnc34)cc2[nH]c1=O` (stereo not drawn) [Compound 74] are 1000 nM, 501 nM and 1000 nM.
As to `Cc1cc2ccc(C(C)(C#N)Cc3nc4ccccc4s3)cc2[nH]c1=O` (stereo not drawn) [Compound 75], the IC50 in assay [1] is 1260 nM; in assay [2], 126 nM; in assay [3], 200 nM.
`Cc1cc2ccc(C(C)(C#N)Cc3ccccc3)cc2[nH]c1=O` (stereo not drawn) [Compound 76]: the IC50 in assay [1] is 1580 nM; in assay [2] it was 251 nM; in assay [3], 631 nM.
On the same counts, the results for `CCc1cc2ccc(C(C)(C#N)Cc3ccc(OC)c(C#N)c3)cc2[nH]c1=O` (stereo not drawn) [Compound 77] are 398 nM, 1000 nM and 1580 nM.
On the same counts, the results for `CCc1cc2ccc(C(C)(C#N)Cc3cc(C)ccc3C)cc2[nH]c1=O` (stereo not drawn) [Compound 78] are 1260 nM, 398 nM and 398 nM.
Take `CCc1cc2ccc(C(C)(C#N)Cc3ccc(F)c(C)c3)cc2[nH]c1=O` (stereo not drawn) [Compound 79]: the IC50 in assay [1], in assay [2] and in assay [3] was 794 nM each time.
For `CCc1cc2ccc(C(C)(C#N)Cc3cc(Cl)ccc3OC)cc2[nH]c1=O` (stereo not drawn) [Compound 80], the values for the IC50 in assay [1], in assay [2] and in assay [3] were 1000 nM, 501 nM and 398 nM, respectively.
The matching figures for `CCc1cc2ccc(C(C)(C#N)Cc3cccc(Br)c3C)cc2[nH]c1=O` (stereo not drawn) [Compound 81]: 1260 nM, 316 nM and 501 nM.
The matching figures for `CCc1cc2ccc(C(C)(C#N)Cc3ccc(Cl)c(C(F)(F)F)c3)cc2[nH]c1=O` (stereo not drawn) [Compound 82]: 3980 nM, 316 nM and 631 nM.
The matching figures for `CCc1cc2ccc(C(C)(C#N)Cc3ccc(C)c(F)c3F)cc2[nH]c1=O` (stereo not drawn) [Compound 83]: 631 nM, 1000 nM and 2000 nM.
As for `CCc1cc2ccc(C(C)(C#N)Cc3c(C)cccc3C)cc2[nH]c1=O` (stereo not drawn) [Compound 84], the IC50 in assay [1] is 1260 nM; in assay [2] it was 2000 nM; in assay [3] it was 3980 nM.
The matching figures for `CCc1cc2ccc(C(C)(C#N)Cc3nc4ccccc4o3)cc2[nH]c1=O` (stereo not drawn) [Compound 85]: 126 nM, 316 nM and 1000 nM.
On the same counts, the results for `CCc1cc2ccc(C(C)(C#N)Cc3csc(C)n3)cc2[nH]c1=O` (stereo not drawn) [Compound 86] are 501 nM, 5010 nM and 6310 nM.
The matching figures for `CCc1cc2ccc(C(C)(C#N)Cc3ccc4nccnc4c3)cc2[nH]c1=O` (stereo not drawn) [Compound 87]: 79.4 nM, 1000 nM and 1000 nM.
Regarding `CCc1cc2ccc(C(C)(C#N)Cc3c(C)c(C)cc(C)c3C)cc2[nH]c1=O` (stereo not drawn) [Compound 88], the IC50 in assay [1] is 1580 nM; in assay [2], over 10000 nM; in assay [3], 10000 nM.
The matching figures for `CCc1cc2ccc(C(C)(C#N)Cc3c(C)c(C)c(C)c(C)c3C)cc2[nH]c1=O` (stereo not drawn) [Compound 89]: 1580 nM, over 10000 nM and over 10000 nM.
With `CCc1cc2ccc(C(C)(C#N)Cc3cc(Cl)cc4c3OCOC4)cc2[nH]c1=O` (stereo not drawn) [Compound 90], the IC50 in assay [1] was 316 nM; in assay [2] it was 1000 nM. Further, the “PC3 antiproliferative activity pIC50” value in assay [3] came out at 5.8.
Turning to `CCc1cc2ccc(C(C)(C#N)Cc3cc4c(cc3Cl)OCO4)cc2[nH]c1=O` (stereo not drawn) [Compound 91], the IC50 in assay [1] was 1260 nM; in assay [2] it was 501 nM; in assay [3] it was 398 nM.
For `CCc1cc2ccc(C(C)(C#N)Cc3cc(Cl)cc4c3OCOC4)cc2[nH]c1=O` (stereo not drawn) [Compound 92], the IC50 in assay [1] is 251 nM. The “HCT116 antiproliferative activity pIC50” value in assay [2] (HCT116 cells) was found to be 5.8. Further, the “PC3 antiproliferative activity pIC50” value in assay [3] stood at 5.4.
For `CCc1cc2ccc(C(C)(C#N)Cc3nncn3C)cc2[nH]c1=O` (stereo not drawn) [Compound 93], the values for the IC50 in assay [1], in assay [2] and in assay [3] were 126 nM, over 10000 nM and 10000 nM, respectively.
For the compound `CCc1cc2ccc(C(C)(C#N)Cc3cccc4nnn(C)c34)cc2[nH]c1=O` (stereo not drawn) [Compound 94], the IC50 in assay [1] is 126 nM; in assay [2], 6310 nM; in assay [3], over 10000 nM.
Consider `CCc1cc2ccc(C(C)(C#N)Cc3nn(C)c4ccccc34)cc2[nH]c1=O` (stereo not drawn) [Compound 95], for which the IC50 in assay [1] is 251 nM; in assay [2] it was 251 nM; in assay [3], 631 nM.
In the case of `CCc1cc2ccc(C(C)(C#N)Cc3cn4ccccc4n3)cc2[nH]c1=O` (stereo not drawn) [Compound 96], the IC50 was 126 nM in assay [1], 5010 nM in assay [2] and over 10000 nM in assay [3].
On to `CCc1cc2ccc(C(C)(C#N)Cc3cccnc3)cc2[nH]c1=O` (stereo not drawn) [Compound 97], for which the IC50 in assay [1] was 39.8 nM; in assay [2] it was 2510 nM; in assay [3] it was over 10000 nM.
On the same counts, the results for `CCc1cc2ccc(C(C)(C#N)Cc3ccncc3)cc2[nH]c1=O` (stereo not drawn) [Compound 98] are 158 nM, over 10000 nM and over 10000 nM.
For the compound `CCc1cc2ccc(C(C)(C#N)Cc3cc(Cl)ccc3Cl)cc2[nH]c1=O` (stereo not drawn) [Compound 99], the IC50 in assay [1] is 1000 nM; in assay [2] it was 79.4 nM; in assay [3], 398 nM.

The values above are taken from patent US8778966B2, “Quinolinone derivatives as PARP and tank inhibitors” (Janssen Pharmaceutica, NV, priority 2007, dated 2014).
